Here are results for 9 compounds from publication PMC11679724, “Novel Quinoline- and Naphthalene-Incorporated Hydrazineylidene–Propenamide Analogues as Antidiabetic Agents: Design, Synthesis, and Computational Studies” (Pharmaceuticals, 2024).

What is called IC50 is the concentration at which inhibition is half-maximal.

Assay [1] deals with human recombinant aldose reductase (Homo sapiens, UniProt P15121). Put plainly: In vitro aldose reductase inhibition assay (DL-glyceraldehyde substrate). It is filed as biochemical. The procedure: (§1) Porcine pancreatic amylase, yeast α-glucosidase, and human recombinant aldose reductase were tested for enzyme inhibition using various substrates, such as starch (1%), pNPG (0.5 mM), and DL-glyceraldehyde (5 mM) for each enzyme. By comparing changes in the test sample absorbance levels to control values and computing inhibition percentages using the following formula, the degree of inhibition was ascertained: Inhibition (%) = [A×(control)] − [{A × (sample)}/{A × (control)} × 100].

For assay [2], the target named is T1, Porcine pancreatic amylase (Sus scrofa, UniProt P00690).
T1 sequence (P00690 16-511): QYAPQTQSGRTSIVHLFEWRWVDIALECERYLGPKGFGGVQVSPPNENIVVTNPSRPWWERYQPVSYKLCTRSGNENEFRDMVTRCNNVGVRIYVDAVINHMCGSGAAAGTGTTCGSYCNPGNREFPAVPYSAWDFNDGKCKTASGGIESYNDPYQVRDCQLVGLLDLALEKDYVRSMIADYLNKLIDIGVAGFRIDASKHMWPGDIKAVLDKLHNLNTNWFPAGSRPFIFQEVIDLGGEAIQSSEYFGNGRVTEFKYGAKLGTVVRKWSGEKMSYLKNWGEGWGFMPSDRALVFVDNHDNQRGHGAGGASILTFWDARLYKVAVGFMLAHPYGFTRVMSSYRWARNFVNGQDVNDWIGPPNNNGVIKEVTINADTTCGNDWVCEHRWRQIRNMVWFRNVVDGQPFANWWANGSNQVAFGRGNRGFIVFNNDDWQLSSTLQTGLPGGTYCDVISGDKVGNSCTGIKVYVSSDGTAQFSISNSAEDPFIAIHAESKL
Kind of assay: In vitro α-amylase inhibition assay (starch substrate). To be noted: mean ± SE; starch 1%. It is filed as biochemical. The procedure: as §1

The next assay has as its system α-amylase (PDB-ID 1DHK). The arrangement: method as in doi:10.3390/separations9090262, PMID 35335251. To be noted: docking of previous study; cited from earlier work.
For assay [3], the system named is α-glucosidase (PDB ID: 3A4A). Further details: method as in doi:10.3390/separations9090262, PMID 35335251. To be noted: docking of previous study; cited from earlier work.
Assay [4] relates to aldose reductase (PDB ID: 1IEI). The arrangement: method as in doi:10.3390/separations9090262, PMID 35335251. The note with it: docking of previous study; cited from earlier work.
Setting [5] is: mean ± SE, DL-glyceraldehyde 5 mM.

On to `CCN/C(=N\NC(=O)COc1ccnc2ccccc12)C(C#N)C(=O)Nc1ccc(C(C)=O)cc1` (centres unmarked) [Compound 7g, N-(4-acetylphenyl)-2-cyano-3-(ethylamino)-3-(2-(2-(quinolin-4-yloxy)acetyl) hydrazineylidene)propenamide], for which the figures for the IC50 in assay [1] (setting [5]), in assay [1] (µg/mL value restated in µM) and in assay [2] were 25.7 µM, 25.8 µM and 36.3 µM, respectively.

For the compound `O=C(O)/C=C/c1ccc(O)c(O)c1` [caffeic acid], the “binding affinity against α-amylase” value with α-amylase (PDB-ID 1DHK) was -33.9 kJ/mol. Moreover, the “binding affinity against α-glucosidase” value in assay [3] is -34.3 kJ/mol. In assay [4], the “binding affinity against aldose reductase” value is -31 kJ/mol.

Take `CCNC(=NNC(=O)COc1ccc2ccccc2c1)C(C#N)C(=O)Nc1ccc(C(N)=O)cc1` (centres unmarked) [Compound 7c, 4-(2-cyano-3-(ethylamino)-3-(2-(2-(naphthalen-2-yloxy)acetyl)hydrazineylidene)propanamido)benzamide]: the IC50 in assay [1] (setting [5]) is 50.8 µM; in assay [2], 57.1 µM.

Turning to `CC(=O)c1ccc(NC(=O)C(C#N)/C(=N/NC(=O)COc2ccc3ccccc3c2)Nc2ccccc2)cc1` (centres unmarked) [Compound 7d, N-(4-acetylphenyl)-2-cyano-3-(2-(2-(naphthalen-2-yloxy)acetyl)hydrazineylidene)-3-(phenylamino)propenamide], the IC50 was 33.6 µM in assay [1] (setting [5]) and 45.7 µM in assay [2].

Turning to `CS/C(Nc1ccccc1)=C(\C#N)C(=O)Nc1ccc(C(N)=O)cc1` [Compound 5a], the IC50 in assay [1] (setting [5]) was 71.3 µM; in assay [2] it was 94 µM.

Regarding `N#CC(C(=O)Nc1ccc(C(N)=O)cc1)C(=NNC(=O)COc1ccc2ccccc2c1)Nc1ccccc1` (centres unmarked) [Compound 7a, 4-(2-cyano-3-(2-(2-(naphthalen-2-yloxy)acetyl)hydrazineylidene)-3-(phenylamino)propanamido)benzamide], the IC50 in assay [1] (setting [5]) is 42.6 µM; in assay [2], 43.1 µM.

For the compound `CC(=O)c1ccc(NC(=O)C(C#N)/C(=N/NC(=O)COc2ccnc3ccccc23)Nc2ccccc2)cc1` (centres unmarked) [Compound 7e, N-(4-acetylphenyl)-2-cyano-3-(phenylamino)-3-(2-(2-(quinolin-4-yloxy)acetyl) hydrazineylidene)propenamide], the IC50 in assay [1] (setting [5]) was 43 µM; in assay [2] it was 38.4 µM.

With `CCN/C(=N\NC(=O)COc1ccc2ccccc2c1)C(C#N)C(=O)Nc1ccc(C(C)=O)cc1` (centres unmarked) [Compound 7f, N-(4-acetylphenyl)-2-cyano-3-(ethylamino)-3-(2-(2-(naphthalen-2-yloxy)acetyl) hydrazineylidene)propenamide], the results for the IC50 in assay [1] (setting [5]) and in assay [2] were 42.8 µM and 61.8 µM, respectively.

Take `N#CC(C(=O)Nc1ccc(C(N)=O)cc1)C(=NNC(=O)COc1ccnc2ccccc12)Nc1ccccc1` (centres unmarked) [Compound 7b, 4-(2-cyano-3-(phenylamino)-3-(2-(2-(quinolin-4-yloxy)acetyl)hydrazineylidene)propanamido)benzamide]: the values for the IC50 in assay [1] (setting [5]) and in assay [2] were 40.6 µM and 37.3 µM, respectively.
